Test results published in patent publication EP0149140A2, “Novel compounds” (BEECHAM GROUP PLC, priority 1983, dated 1985).

System: E coli B44 (09:K90:K99)
Assay: Protection of Neonatal Mice from Lethal Enteropathogenic E coli Infection
Type: in vivo
Details: 4 day old mice, % reduction in mortality vs placebo, 10 days; for inhibition in vivo at 0.4 mg/kg: 0.4 mg/kg (dose of hydrochloride salt) b.i.d. for four days commencing 16 hours after infection; for inhibition in vivo at 0.08 mg/kg: 0.08 mg/kg (dose of hydrochloride salt) b.i.d. for four days commencing 16 hours after infection; for inhibition in vivo at 2 mg/kg: 2 mg/kg (dose of hydrochloride salt) b.i.d. for four days commencing 16 hours after infection; for Protection %: Table 2, 10 mg/kg (dose of hydrochloride salt) b.i.d. for four days commencing 16 hours after infection
Method: 4 day old mice were dosed orally with 50µl of phosphate buffered saline containing 1 x 10^5 organisms/ml of E coli B44 (09:K90:K99) an enteropathogenic strain originally isolated from a scouring calf. The mice were then dosed b.i.d. with either placebo or drug as the hydrochloride salt for four days commencing 16 hours after infection. The animals were left with their mothers throughout the experiment and a daily record of deaths were made. The experiment was terminated 10 days after infection of the mice.
The mortality in the drug group was then compared with the mortality in the placebo group using the following formula:- [formula] where Mp = mortality in group receiving placebo Md = mortality in group receiving drug
Statistical analysis was performed using 2 x 2 contingency tables (single tailed 'p'). Results are given in Tables 1 and 2. 'Protection %' is the same as '% Reduction in mortality' above.

[1] = Mus musculus, intraduodenal, 240 h, Table 1

| Structure (SMILES) | inhibition in vivo at 0.4 mg/kg [1] [%] | inhibition in vivo at 0.08 mg/kg [1] [%] | inhibition in vivo at 2 mg/kg [1] [%] | further results |
| --- | --- | --- | --- | --- |
| S=C(NCc1ccccc1)Nc1cc(Cl)c(N=C2NCCN2)c(Cl)c1 | 21 | – | – | – |
| CN=C(Nc1cc(Cl)c(N=C2NCCN2)c(Cl)c1)SC | 26 | 22 | 13 | – |
| CSC(=Nc1cc(Cl)c(N=C2NCCN2)c(Cl)c1)N(C)C | – | 13 | – | – |
| CSC(=NCc1ccc(F)cc1)Nc1cc(Cl)c(N=C2NCCN2)c(Cl)c1 | – | 29 | – | inhibition in vivo at 0.04 mg/kg (Mus musculus, intraduodenal, 240 h, Table 1, 0.04 mg/kg (dose of hydrochloride salt) b.i.d. for four days commencing 16 hours after infection): 40% |
| CNC(=S)Nc1cc(C)c(N=C2NCCN2)c(C)c1 | 43 | – | 69 | – |
| Cc1cc(NC(=S)NCc2ccc(F)cc2)cc(C)c1N=C1NCCN1 | – | – | 11 | – |
| CNC(=S)Nc1cc(Cl)c(N=C2NCCN2)c(Cl)c1 | 6 | 6 | – | – |
| S=C(Nc1cc(Cl)c(N=C2NCCN2)c(Cl)c1)NC1CCCCC1 | – | 6 | – | – |
| CNC(=S)Nc1ccc(C)c(N=C2NCCN2)c1 | – | – | – | Protection %: 5% |
| CN=C(Nc1ccc(C)c(N=C2NCCN2)c1)SC | – | – | – | Protection %: 13% |
